Results taken from US12576047B2, “Telomerase activating compounds for use in fertility and related applications” (Neuromagen Pharma Ltd, priority 2017, dated 2026).

Columns and labels:
mouse ovary = assay: Hematoxylin-eosin histology of mouse ovary; type: in vivo; conditions: for ovary histology: 6 mg/Kg single dose at Di-estrus stage; for ovary histology / ovary histology (follicles, granulosa cells): 12 hours; for ovary histology (follicles, granulosa cells): 6 mg/Kg single dose at met-estrus stage; for ovary histology (corpus luteum): 6 mg/Kg single dose at pro-estrus and estrus stages, 12 hrs
From the text: The ovaries were weighted; one was taken for protein extraction for measuring telomerase activity by TRAP assay, and the other one for the histological examination using hematoxylin-eosin staining of the ovary and its follicles.
The mice ovaries were removed and fixed with 4% paraformaldehyde overnight, dehydrated in increasing ethanol concentrations to xylene, and embedded in paraffin. A rotary microtome was used to produce 5 μm sections, which were mounted on Superfrost plus slides. The sections were dried and heated at 37° C. overnight and stored in dry place. Paraffin-embedded sections were deparaffinized in xylene and rehydrated in decreasing concentrations of ethanol. Then the sections stained with hematoxylin-eosin or subjected to immunochemical and Immunofluorescent assays [Liani-Leibson, K., I. Har-Vardi, and E. Priel, Inhibition of topoisomerase I by anti-cancer drug altered the endometrial cyclicity and receptivity. Curr Mol Med, 2014. 14(1): p. 141-50].

LH = LH expression by RT-PCR in pituitary gland cells; type: cell-based, mouse; conditions: 50 nM, vs untreated
Experimental: FIGS. 29A, 29B, 29C and 29D: The embodied compounds affect the expression of gonadotropin hormones in pituitary gland cells. Cells (L T2) derived from the mouse pituitary gland were assessed for their secretion of LH and FSH at 6 (FIGS. 29A and 29B) and 12 hours (FIGS. 29C and 29D) following treatment with the indicated embodied compounds (50 nM). FSH and LH expression was determined by RT-PCR, and quantified from 5 different experiments, as assessed for significance, using the t test, one way ANOVA.

SMILES	ovary histology (mouse ovary)	ovary histology (follicles, granulosa cells) (mouse ovary)	ovary histology (corpus luteum) (mouse ovary)	LH expression (LH; 12 hours)	LH expression (LH; 6 hours post treatment)
CC(c1cc(Br)c(O)c(Br)c1)(c1cc(Br)c(O)c(Br)c1)c1cc(Br)c(O)c(Br)c1 [Compound 68]	a plurality of corpus luteum (CL)	more developed follicles (white arrow) and plurality of layers of granulosa cells (GC) around the oocytes	more corpus luteum (CL) than in the control group	increased LH production above untreated levels	–
CCOCc1cc(C(C)(c2cc(COCC)c(O)c(COCC)c2)c2cc(COCC)c(O)c(COCC)c2)cc(COCC)c1O [Compound 79]	multiple layers of granulosa cells (GC) around the oocytes	more developed follicles (white arrow) and plurality of layers of granulosa cells (GC) around the oocytes	more corpus luteum (CL) than in the control group	–	increased expression of LH above untreated levels
